Assays:
[1] = target: Protein-tyrosine kinase 2-beta (Homo sapiens) (UniProt Q14289); experiment: Selectivity interaction (Kinase panel (Z-LYTE Assay)) EUB0001632a PTK2B; conditions: at 10 µM
[2] = target: T1, Serine/threonine-protein kinase haspin (Homo sapiens) (UniProt Q8TF76); experiment: Selectivity interaction (KinomeScan (DiscoverX)) EUB0000695a GSG2; conditions: at 100 nM
T1 sequence (whole entry): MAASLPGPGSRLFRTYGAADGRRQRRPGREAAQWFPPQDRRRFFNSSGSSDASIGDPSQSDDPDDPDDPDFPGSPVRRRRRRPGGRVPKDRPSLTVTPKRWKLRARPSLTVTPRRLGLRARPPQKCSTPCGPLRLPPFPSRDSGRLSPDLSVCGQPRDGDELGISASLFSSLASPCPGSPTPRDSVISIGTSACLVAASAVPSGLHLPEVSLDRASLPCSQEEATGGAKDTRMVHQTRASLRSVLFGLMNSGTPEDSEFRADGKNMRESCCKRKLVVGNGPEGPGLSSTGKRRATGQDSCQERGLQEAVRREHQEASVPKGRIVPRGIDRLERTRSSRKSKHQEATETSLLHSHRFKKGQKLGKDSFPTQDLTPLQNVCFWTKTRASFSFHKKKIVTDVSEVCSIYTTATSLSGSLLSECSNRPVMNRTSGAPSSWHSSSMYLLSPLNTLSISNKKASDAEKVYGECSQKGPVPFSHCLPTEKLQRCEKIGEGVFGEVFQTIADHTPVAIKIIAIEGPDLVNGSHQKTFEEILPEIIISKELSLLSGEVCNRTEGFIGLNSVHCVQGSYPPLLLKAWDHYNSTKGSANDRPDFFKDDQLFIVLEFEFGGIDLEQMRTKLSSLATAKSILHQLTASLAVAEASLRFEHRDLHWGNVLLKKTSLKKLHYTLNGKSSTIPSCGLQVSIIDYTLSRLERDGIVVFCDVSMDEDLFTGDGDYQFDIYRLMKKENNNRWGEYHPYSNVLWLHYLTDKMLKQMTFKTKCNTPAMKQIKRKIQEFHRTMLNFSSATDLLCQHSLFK

[3] = target: Tyrosine-protein kinase FRK (Homo sapiens) (UniProt P42685); experiment: Selectivity interaction (KinomeScan (DiscoverX)) EUB0000695a FRK; conditions: at 100 nM
[4] = target: Serine/threonine-protein kinase MRCK beta (Homo sapiens) (UniProt Q9Y5S2); conditions: at 10 µM
[5] = target: Interferon-induced, double-stranded RNA-activated protein kinase (Homo sapiens) (UniProt P19525); experiment: Selectivity interaction (ProQinase) EUB0000171b EIF2AK2
[6] = target: T2, Aurora kinase A (Homo sapiens) (UniProt O14965); experiment: Selectivity interaction (KinomeScan (DiscoverX)) EUB0000607a STK6; conditions: at 10 µM
T2 sequence (whole entry): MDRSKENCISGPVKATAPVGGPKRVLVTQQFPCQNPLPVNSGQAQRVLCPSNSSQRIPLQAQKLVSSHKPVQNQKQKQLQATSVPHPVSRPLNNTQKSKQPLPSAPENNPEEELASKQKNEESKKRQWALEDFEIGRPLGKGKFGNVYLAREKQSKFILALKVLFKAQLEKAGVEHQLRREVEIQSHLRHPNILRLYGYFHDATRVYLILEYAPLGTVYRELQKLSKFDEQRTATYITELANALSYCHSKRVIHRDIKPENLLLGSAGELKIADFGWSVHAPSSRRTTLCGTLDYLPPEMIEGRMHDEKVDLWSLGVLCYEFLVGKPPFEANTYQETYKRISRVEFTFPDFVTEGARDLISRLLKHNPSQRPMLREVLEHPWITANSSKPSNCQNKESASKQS

[7] = target: T3, Protein arginine N-methyltransferase 7 (Homo sapiens) (UniProt Q9NVM4); experiment: Selectivity interaction (Methyltransferase screen (Scintillation proximity assays)) EUB0000255b PRMT7
T3 sequence (whole entry): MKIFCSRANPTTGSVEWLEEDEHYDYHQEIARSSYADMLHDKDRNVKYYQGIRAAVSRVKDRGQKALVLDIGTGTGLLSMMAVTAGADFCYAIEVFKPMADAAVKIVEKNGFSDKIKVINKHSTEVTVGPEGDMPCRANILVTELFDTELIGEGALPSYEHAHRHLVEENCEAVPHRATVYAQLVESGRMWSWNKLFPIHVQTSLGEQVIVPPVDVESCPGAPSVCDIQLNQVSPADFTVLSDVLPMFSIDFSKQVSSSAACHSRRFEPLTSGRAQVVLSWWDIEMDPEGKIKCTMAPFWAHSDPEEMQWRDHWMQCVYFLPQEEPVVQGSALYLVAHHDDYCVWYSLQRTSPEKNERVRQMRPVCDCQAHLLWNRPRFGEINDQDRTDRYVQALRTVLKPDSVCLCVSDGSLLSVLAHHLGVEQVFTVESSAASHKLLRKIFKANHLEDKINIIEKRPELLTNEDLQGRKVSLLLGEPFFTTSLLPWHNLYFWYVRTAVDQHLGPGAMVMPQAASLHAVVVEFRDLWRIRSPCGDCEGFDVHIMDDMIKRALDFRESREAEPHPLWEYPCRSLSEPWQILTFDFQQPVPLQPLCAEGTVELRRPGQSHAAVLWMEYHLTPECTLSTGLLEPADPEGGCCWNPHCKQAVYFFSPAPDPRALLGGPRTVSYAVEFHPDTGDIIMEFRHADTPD

[8] = target: T4, Mitogen-activated protein kinase 15 (Homo sapiens) (UniProt Q8TD08); experiment: Selectivity interaction (KinomeScan (DiscoverX)) EUB0000666a MAPK15; conditions: at 10 µM
T4 sequence (whole entry): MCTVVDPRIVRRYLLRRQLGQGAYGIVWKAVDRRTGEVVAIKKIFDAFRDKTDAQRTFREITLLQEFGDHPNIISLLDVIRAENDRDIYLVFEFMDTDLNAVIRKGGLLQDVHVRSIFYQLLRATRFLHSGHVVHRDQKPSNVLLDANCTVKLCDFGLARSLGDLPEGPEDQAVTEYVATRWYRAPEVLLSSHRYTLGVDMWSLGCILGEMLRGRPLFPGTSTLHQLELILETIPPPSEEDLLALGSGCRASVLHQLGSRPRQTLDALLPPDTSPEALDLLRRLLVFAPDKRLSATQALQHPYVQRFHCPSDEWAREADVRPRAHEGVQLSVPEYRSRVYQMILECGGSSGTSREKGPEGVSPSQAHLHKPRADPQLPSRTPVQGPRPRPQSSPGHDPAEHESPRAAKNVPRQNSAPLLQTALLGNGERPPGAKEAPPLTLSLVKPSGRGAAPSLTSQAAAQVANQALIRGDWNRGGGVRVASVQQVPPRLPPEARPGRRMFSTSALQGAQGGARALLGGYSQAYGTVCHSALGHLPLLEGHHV

Sequence of Interferon-induced, double-stranded RNA-activated protein kinase (Homo sapiens) (P19525 whole entry): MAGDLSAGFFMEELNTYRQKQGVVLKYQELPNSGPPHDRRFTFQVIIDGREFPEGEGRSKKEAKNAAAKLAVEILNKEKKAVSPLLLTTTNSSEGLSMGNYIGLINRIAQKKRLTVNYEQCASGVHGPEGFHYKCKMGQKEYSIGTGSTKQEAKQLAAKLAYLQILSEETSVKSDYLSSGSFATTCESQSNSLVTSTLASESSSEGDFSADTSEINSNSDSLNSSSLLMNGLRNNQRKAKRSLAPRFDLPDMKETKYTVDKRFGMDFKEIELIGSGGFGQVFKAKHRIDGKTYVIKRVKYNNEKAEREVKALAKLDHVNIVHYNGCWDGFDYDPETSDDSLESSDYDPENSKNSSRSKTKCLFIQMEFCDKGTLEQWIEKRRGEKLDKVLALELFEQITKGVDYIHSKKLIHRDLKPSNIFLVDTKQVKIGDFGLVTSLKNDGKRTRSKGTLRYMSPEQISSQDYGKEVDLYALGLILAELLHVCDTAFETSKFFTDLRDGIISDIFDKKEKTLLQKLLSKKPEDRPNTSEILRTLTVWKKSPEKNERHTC
Sequence of Serine/threonine-protein kinase MRCK beta (Homo sapiens) (Q9Y5S2 whole entry): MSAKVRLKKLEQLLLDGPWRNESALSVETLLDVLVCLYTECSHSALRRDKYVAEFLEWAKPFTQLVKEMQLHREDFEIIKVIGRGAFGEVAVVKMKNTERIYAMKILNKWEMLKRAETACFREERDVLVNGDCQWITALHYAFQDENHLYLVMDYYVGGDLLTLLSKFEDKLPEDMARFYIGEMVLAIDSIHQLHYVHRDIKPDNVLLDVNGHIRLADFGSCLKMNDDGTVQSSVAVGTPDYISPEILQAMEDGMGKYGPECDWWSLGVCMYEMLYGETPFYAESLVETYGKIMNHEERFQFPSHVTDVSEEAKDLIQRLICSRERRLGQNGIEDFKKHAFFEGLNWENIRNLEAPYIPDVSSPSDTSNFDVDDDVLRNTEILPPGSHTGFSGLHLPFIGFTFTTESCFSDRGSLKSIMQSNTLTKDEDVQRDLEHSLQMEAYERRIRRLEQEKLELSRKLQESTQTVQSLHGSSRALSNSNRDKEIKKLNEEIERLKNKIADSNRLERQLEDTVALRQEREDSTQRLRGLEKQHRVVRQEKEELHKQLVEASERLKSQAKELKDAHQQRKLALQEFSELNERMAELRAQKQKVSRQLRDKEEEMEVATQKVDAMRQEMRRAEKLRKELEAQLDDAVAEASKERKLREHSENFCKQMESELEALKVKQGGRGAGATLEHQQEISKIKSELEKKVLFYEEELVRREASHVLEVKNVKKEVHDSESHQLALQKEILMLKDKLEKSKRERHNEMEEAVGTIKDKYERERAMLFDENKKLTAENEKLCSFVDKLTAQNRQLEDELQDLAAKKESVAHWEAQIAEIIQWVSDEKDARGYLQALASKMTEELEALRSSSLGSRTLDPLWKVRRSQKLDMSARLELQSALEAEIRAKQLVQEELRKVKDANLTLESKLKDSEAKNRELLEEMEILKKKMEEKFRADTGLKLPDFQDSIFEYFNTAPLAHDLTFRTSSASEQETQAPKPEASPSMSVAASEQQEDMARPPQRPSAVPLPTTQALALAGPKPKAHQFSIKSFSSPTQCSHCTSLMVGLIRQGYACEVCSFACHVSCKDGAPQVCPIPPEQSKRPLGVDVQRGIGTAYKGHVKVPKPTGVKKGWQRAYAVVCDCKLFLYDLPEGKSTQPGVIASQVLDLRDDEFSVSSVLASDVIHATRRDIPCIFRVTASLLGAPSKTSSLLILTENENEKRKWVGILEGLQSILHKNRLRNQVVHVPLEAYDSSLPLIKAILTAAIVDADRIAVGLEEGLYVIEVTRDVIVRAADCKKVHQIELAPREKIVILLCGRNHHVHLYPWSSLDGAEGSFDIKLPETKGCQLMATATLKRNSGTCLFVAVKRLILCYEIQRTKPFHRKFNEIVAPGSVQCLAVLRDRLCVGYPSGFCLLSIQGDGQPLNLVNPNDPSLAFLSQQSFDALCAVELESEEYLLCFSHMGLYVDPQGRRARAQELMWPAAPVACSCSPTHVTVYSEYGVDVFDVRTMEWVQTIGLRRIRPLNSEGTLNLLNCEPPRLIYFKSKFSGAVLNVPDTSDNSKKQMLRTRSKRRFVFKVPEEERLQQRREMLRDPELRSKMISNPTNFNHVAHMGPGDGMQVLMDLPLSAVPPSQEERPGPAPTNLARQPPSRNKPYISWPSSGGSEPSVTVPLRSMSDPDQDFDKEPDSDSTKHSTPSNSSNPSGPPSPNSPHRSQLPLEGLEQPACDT
Sequence of Protein-tyrosine kinase 2-beta (Homo sapiens) (Q14289 whole entry, looked up): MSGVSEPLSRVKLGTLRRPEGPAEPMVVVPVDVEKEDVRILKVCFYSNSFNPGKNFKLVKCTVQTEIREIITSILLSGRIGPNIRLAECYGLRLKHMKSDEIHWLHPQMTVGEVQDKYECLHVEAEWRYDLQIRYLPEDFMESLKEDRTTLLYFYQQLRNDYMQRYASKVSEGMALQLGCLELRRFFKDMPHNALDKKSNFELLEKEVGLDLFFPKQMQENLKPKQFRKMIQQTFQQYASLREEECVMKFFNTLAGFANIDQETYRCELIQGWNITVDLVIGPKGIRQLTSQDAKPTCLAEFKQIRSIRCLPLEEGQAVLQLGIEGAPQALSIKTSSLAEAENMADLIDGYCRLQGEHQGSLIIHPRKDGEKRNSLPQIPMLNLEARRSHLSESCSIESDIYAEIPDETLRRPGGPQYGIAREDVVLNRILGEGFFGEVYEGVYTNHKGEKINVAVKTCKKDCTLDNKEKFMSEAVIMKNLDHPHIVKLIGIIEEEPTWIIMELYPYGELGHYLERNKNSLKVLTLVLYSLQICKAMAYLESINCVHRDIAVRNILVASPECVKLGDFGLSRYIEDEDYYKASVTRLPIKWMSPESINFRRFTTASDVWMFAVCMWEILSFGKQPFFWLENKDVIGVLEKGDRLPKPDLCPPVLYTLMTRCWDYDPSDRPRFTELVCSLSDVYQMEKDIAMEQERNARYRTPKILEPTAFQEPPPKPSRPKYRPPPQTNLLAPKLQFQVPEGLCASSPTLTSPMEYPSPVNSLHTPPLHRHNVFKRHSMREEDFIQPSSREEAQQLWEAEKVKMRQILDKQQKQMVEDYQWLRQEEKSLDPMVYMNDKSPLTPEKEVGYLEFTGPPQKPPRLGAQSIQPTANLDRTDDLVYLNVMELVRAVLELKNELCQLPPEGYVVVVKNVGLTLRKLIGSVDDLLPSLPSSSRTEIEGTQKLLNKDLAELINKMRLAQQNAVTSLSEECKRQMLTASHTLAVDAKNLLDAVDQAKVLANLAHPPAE
Sequence of Tyrosine-protein kinase FRK (Homo sapiens) (P42685 whole entry): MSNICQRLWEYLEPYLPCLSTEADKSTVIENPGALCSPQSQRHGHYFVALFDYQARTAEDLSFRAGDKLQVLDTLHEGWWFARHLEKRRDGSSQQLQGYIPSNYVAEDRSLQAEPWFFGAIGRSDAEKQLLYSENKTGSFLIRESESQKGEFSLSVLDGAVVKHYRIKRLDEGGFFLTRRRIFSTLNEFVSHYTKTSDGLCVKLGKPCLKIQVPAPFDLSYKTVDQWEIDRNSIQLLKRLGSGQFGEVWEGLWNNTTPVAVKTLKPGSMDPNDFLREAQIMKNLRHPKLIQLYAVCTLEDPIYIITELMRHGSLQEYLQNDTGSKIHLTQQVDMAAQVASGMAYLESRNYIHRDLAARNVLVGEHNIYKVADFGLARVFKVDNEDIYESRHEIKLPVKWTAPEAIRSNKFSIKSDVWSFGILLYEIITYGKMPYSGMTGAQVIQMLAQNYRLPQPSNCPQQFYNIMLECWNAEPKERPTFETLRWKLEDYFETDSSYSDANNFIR

Cn1cc(-n2cnc3c(NCc4nc5cc(Cl)c(Cl)cc5[nH]4)nc(N4CCOCC4)nc32)cn1
% of control [1]: 6.24%

Cc1cc(F)c(C(=O)Nc2cccc(-c3nncn3C(C)C)n2)cc1-n1cnc(C2CC2)c1
% of control [2]: 100% | % of control [3]: 100%

CCN(CC)CCCCNc1ncc2cc(-c3cc(OC)cc(OC)c3)c(NC(=O)NC(C)(C)C)nc2n1
% of control [4]: 100%

C=CC(=O)Nc1cccc(C(=O)Nc2ccc(Nc3cc(-c4[nH]c(SC)nc4C)ccn3)cc2)c1
% of control ([5]; at 1 µM): 84% | % of control ([5]; at 5 µM): 55%

CNC(=O)Nc1ccc(-c2nc(N3CC4CCC(C3)O4)c3cnn(C4CCC5(CC4)OCCO5)c3n2)cc1
% of control [6]: 100%

COCCN1CCC(c2cc(CN(C)C(=O)c3cccc(Oc4ccccc4)c3)ccn2)CC1
% activity ([7]; at 1 µM): > 95% | % activity ([7]; at 10 µM): > 90%

O=C(NOC[C@H](O)CO)c1ccc(F)c(F)c1Nc1ccc(I)cc1F
% of control [8]: 100%

— ChEMBL document CHEMBL5465560, “Selectivity Literature for EUbOPEN Chemogenomic Library” (2024)
